Source: patent publication US9603835B2, “Use of 3-(R)-[3-(2-methoxyphenylthio)-2-(S)-methylpropyl]amino-3,4-dihydro-2H-1,5-benzoxathiepine for treating cancer and in particular for preventing and/or treating cancer metastases” (PIERRE FABRE MEDICAMENT, priority 2011, dated 2017)

What was measured:
[1] = biological target: T1, Nav1.5 voltage-gated sodium channels (Homo sapiens, UniProt Q14524); assay: Whole-cell patch-clamp, repeated depolarisation protocol, MDA-MB-231 cells; assay type: cell-based
T1 construct: said cells express, inter alia, functional Nav1.5 voltage-gated sodium channels; endogenous in cells; host or cells: MDA-MB-231
Description: Merely as an illustration, the inventors chose to use the MDA-MB-231 line, which is a highly metastatic human mammary adenocarcinoma line, in the experiment. […] However, the pharmacological tools in question are not suitable for precise characterisation of the nature of the Nav1.5 sodium current involved in the metastatic process. […] For this reason, the inventors consider that 3-(R)-[3-(2-methoxyphenylthio)-2-(S)-methyl-propyl]amino-3,4-dihydro-2H-1,5-benzoxathiepine has anti-metastatic properties in relation to cancer cells expressing the Nav1.5 channel. As such, it is important to note that numerous types of metastatic cancer have been reported as expressing the Nav1.5 channel.
Cell culture: the MDA-MB-231 cells are cultured in a Dulbecco's modified Eagle's medium, (Life Technologies LTD, Paisley, UK) supplemented with 4 mM L-glutamine and 10% foetal calf serum. The cells are inoculated in 100 mm culture dishes and placed in an incubator at 37° C., 100% moisture and 5% CO2.
Electrophysiological measurements in “whole cell” configuration: the patch pipette (resistance 5-15 MΩ) contains a solution of: 5 mM NaCl, 145 mM CsCl, 2 mM MgCl2, 1 mM CaCl2, 10 mM HEPES and 11 mM EGTA, the pH is adjusted to 7.4 with CsOH. The reference electrode is immersed in the extracellular medium consisting of a solution of: 140 mM NaCl, 4 mM KCl, 2 mM MgCl2, 11 mM glucose, 10 mM HEPES, the pH is adjusted to 7.4 with NaOH. These two electrodes are connected to an Axopatch 200B amplifier (Axon Instrument). The currents are filtered using a Bessel filter at a frequency of 5 kHz and are sampled at a frequency of 5 kHz using the Digidata interface (1200). The data acquisition and analysis are performed using pClamp software (Axon Instrument). The holding potential is set to −110 mV to record the maximum Nav channel activity.
Two protocols were used: • 1/ “Voltage-dependent current INa” protocol for observing the maximum amplitude of INa according to the voltage applied. Depolarisations in 5 mV stages are performed at a frequency of 0.2 Hz, from −110 to +60 mV. […]

[2] = In vivo effect on normal cardiac function; details: even at high doses
Cytotoxicity = assay type: cell-based

T1 sequence (Q14524 1-2016 isoform Q14524-4): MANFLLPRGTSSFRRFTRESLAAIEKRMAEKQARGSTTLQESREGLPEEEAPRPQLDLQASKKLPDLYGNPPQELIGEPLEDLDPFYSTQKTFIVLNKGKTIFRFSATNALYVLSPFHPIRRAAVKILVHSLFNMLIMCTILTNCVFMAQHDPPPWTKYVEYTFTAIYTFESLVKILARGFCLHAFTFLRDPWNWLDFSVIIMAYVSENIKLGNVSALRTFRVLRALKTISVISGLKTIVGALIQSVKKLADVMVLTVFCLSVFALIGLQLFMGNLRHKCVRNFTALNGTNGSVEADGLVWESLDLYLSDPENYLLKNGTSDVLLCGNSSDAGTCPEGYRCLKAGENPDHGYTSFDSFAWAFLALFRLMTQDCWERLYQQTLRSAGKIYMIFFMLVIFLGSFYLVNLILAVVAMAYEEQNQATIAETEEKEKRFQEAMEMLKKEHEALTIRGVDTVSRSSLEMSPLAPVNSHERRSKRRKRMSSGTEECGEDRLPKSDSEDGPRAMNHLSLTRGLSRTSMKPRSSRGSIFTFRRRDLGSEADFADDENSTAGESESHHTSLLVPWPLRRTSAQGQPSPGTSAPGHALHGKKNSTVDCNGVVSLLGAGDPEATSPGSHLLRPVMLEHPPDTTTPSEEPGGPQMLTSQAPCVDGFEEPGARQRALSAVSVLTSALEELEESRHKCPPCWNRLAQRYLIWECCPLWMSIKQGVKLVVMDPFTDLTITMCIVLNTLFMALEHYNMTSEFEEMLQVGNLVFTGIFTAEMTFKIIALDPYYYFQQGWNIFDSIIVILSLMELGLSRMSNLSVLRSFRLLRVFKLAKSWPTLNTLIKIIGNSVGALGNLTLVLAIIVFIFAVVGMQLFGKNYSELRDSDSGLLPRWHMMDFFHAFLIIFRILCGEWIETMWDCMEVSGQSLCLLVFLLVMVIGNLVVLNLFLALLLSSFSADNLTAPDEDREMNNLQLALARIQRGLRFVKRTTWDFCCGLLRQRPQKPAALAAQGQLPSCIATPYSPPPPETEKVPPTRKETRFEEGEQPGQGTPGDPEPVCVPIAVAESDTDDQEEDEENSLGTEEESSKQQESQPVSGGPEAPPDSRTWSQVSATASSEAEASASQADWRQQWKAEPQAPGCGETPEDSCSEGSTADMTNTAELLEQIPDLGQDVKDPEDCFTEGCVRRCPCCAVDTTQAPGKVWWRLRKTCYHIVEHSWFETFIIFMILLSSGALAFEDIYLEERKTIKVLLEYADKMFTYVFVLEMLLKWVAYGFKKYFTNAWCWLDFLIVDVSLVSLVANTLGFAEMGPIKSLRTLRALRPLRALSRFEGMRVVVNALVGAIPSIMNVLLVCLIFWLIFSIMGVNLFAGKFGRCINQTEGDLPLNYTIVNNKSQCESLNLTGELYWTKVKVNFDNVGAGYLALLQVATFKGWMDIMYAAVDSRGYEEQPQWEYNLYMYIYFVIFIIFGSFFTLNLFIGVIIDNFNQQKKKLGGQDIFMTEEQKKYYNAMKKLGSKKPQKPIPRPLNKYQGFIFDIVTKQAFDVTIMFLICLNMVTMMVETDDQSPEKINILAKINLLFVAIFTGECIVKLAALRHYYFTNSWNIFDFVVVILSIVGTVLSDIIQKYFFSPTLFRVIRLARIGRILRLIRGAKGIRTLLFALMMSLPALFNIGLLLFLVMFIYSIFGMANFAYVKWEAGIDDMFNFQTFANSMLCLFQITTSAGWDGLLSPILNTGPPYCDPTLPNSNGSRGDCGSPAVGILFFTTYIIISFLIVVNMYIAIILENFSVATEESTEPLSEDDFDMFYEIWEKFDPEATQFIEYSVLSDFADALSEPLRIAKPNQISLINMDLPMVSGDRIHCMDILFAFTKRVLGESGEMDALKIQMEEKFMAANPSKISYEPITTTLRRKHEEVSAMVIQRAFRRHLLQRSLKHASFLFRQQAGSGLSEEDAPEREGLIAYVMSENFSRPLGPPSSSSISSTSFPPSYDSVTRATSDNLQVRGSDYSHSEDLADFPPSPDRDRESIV

Row | Compound | IC50 ([1]; MDA-MB-231 cells, whole cell patch-clamp, concentration-dependent, read-out: reduction of the metastatic Nav1.5 current (IC50)) [nM] | interference with normal cardiac function [2] | cytotoxicity (Cytotoxicity) | peak current inhibition ([1]; 1 µM) [%] | peak current inhibition ([1]; 5 µM) [%]
1 | COc1ccccc1SC[C@@H](C)CN[C@@H]1COc2ccccc2SC1 [3-(R)-[3-(2-methoxyphenylthio)-2-(S)-methyl-propyl]amino-3,4-dihydro-2H-1,5-benzoxathiepine] | 1500 | does not interfere with normal cardiac function | not cytotoxic |  | 
2 | NC1=N[C@H](O)[C@H]2[C@H]3O[C@]4(O)O[C@@H]([C@@H](O)[C@@]2(N1)[C@@H]4O)[C@]3(O)CO [tetrodotoxin] |  |  |  | 30±7 | 54±8
